Several values for one entry are separate records, joined by “and”; a condition that tells them apart may be missing. Equal entries are not always repeated.
Test system: 876862-298-R-J1-PDC complex spheroids, viability % test/control
Experiment: Anticancer human tumor 876862-298-R-J1-PDC patient-derived endometrial carcinoma cell line growth inhibition [CLK]
Settings: for viability, T/C: stronger effect = lower value; active = viability on the fitted dose curve at most 10% of control; inactive = the rest
Outline: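 Patient-derived tumor cells grown as complex spheroids with HUVEC endothelial cells and mesenchymal stem cells, treated with drug combinations. Concentrations descend in half-log steps from near clinical Cmax, or from 10 microM if Cmax unknown.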

[1] = curve of first compound, second compound 0.0316 µM
[2] = curve of first compound, second compound 0.1 µM
[3] = curve of first compound, second compound 0.316 µM
[4] = curve of first compound, second compound 1 µM
[5] = curve of first compound, second compound 3.16 µM
[6] = curve of first compound, second compound 10 µM
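Note: spheroids exposed to drugs for 7 days before readout.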
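Throughout, for viability, T/C: 100% = DMSO vehicle control wells.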

CC(=O)O[C@H]1C(=O)[C@@]2(C)[C@H]([C@H](OC(=O)c3ccccc3)[C@]3(O)C[C@H](OC(=O)[C@H](O)[C@@H](NC(=O)c4ccccc4)c4ccccc4)C(C)=C1C3(C)C)[C@]1(OC(C)=O)CO[C@@H]1C[C@@H]2O
inactive: viability, T/C (compound 0.0316 µM) 25.9% and 26.5% | viability, T/C (compound 0.1 µM) 23.7% and 22.9% | viability, T/C (compound 0.316 µM) 23% and 20% | viability, T/C (compound 1 µM) 25.4% and 25.1% | viability, T/C (compound 3.16 µM) 29.2% and 23.1% | viability, T/C (compound 10 µM) 32.2% and 26.1%
< 31.6 nM: IC50 (curve of compound)

CC(C)CC(NC(=O)C(Cc1ccccc1)NC(=O)c1cnccn1)B(O)O (stereo not given)
13.2% and 7.38%: viability, T/C (compound 0.003 µM)
1.99 nM and 1.64 nM: IC50 (curve of compound)
inactive: viability, T/C (compound 0.000949 µM) 116% and 88.5%
active: viability, T/C (compound 0.00949 µM) 0.57% and 0.51% | viability, T/C (compound 0.03 µM) 0.45% and 0.53% | viability, T/C (compound 0.0949 µM) 0.3% and 0.59% | viability, T/C (compound 0.3 µM) 0.2% and 0.9%

CC(Nc1ccc2c(c1)OCCn1cc(N3C(=O)OCC3C(F)F)nc1-2)C(N)=O (stereo not given)
inactive: viability, T/C (compound 0.0316 µM) 105% and 86.6% | viability, T/C (compound 0.1 µM) 81.8% and 90.4% | viability, T/C (compound 0.316 µM) 76.5% and 68.3% | viability, T/C (compound 1 µM) 72.2% and 51.6% | viability, T/C (compound 3.16 µM) 48.5% and 38.3% | viability, T/C (compound 10 µM) 27.7% and 22.8%
2840 nM and 1210 nM: IC50 (curve of compound)

CC(CO)NC(=O)c1cc(-c2ccc(Cl)cc2)nn(-c2cnn(C)c2)c1=O (stereo not given)
> 10000 nM: IC50 (curve of compound)
inactive: viability, T/C (compound 0.0316 µM) 85% and 116% | viability, T/C (compound 0.1 µM) 92.3% and 95.9% | viability, T/C (compound 0.316 µM) 79.3% and 80.6% | viability, T/C (compound 1 µM) 88.4% and 76.2% | viability, T/C (compound 3.16 µM) 71.6% and 78.7% | viability, T/C (compound 10 µM) 56% and 64.9%

NC(=O)C(=Cn1cnc(-c2cc(C(F)(F)F)cc(C(F)(F)F)c2)n1)c1cncnc1 + CN1CCN(c2cc(C(=O)Nc3cc4cc(-c5cnn(C)c5)ccc4cn3)ccn2)CC1
active: viability, T/C (second compound 0.0316 µM, first compound 3 µM) 2.88% | viability, T/C (second compound 0.1 µM, first compound 0.3 µM) 4.49% | viability, T/C (second compound 0.1 µM, first compound 0.949 µM) 0.38% | viability, T/C (second compound 0.1 µM, first compound 3 µM) 0.99% | viability, T/C (second compound 0.316 µM, first compound 0.00949 µM) 1.38% | viability, T/C (second compound 0.316 µM, first compound 0.03 µM) 0.32% | viability, T/C (second compound 0.316 µM, first compound 0.0949 µM) 0.86% | viability, T/C (second compound 0.316 µM, first compound 0.3 µM) 0.98% | viability, T/C (second compound 0.316 µM, first compound 0.949 µM) 0.83% | viability, T/C (second compound 0.316 µM, first compound 3 µM) 1.69% | viability, T/C (second compound 1 µM, first compound 0.00949 µM) 0.33% | viability, T/C (second compound 1 µM, first compound 0.03 µM) 0.27% | viability, T/C (second compound 1 µM, first compound 0.0949 µM) 0.22% | viability, T/C (second compound 1 µM, first compound 0.3 µM) 0.36% | viability, T/C (second compound 1 µM, first compound 0.949 µM) 0.45% | viability, T/C (second compound 1 µM, first compound 3 µM) 1.17% | viability, T/C (second compound 3.16 µM, first compound 0.00949 µM) 0.3% | viability, T/C (second compound 3.16 µM, first compound 0.03 µM) 1.41% | viability, T/C (second compound 3.16 µM, first compound 0.0949 µM) 0.93% | viability, T/C (second compound 3.16 µM, first compound 0.3 µM) 0.82% | viability, T/C (second compound 3.16 µM, first compound 0.949 µM) 1.14% | viability, T/C (second compound 3.16 µM, first compound 3 µM) 1.63% | viability, T/C (second compound 10 µM, first compound 0.00949 µM) 1.33% | viability, T/C (second compound 10 µM, first compound 0.03 µM) 1.7% | viability, T/C (second compound 10 µM, first compound 0.0949 µM) 1.02% | viability, T/C (second compound 10 µM, first compound 0.3 µM) 1.05% | viability, T/C (second compound 10 µM, first compound 0.949 µM) 1.22% | viability, T/C (second compound 10 µM, first compound 3 µM) 1.15%
inactive: viability, T/C (second compound 0.0316 µM, first compound 0.00949 µM) 67.5% | viability, T/C (second compound 0.0316 µM, first compound 0.03 µM) 49.3% | viability, T/C (second compound 0.0316 µM, first compound 0.0949 µM) 33% | viability, T/C (second compound 0.0316 µM, first compound 0.3 µM) 24.1% | viability, T/C (second compound 0.0316 µM, first compound 0.949 µM) 11.3% | viability, T/C (second compound 0.1 µM, first compound 0.00949 µM) 38.5% | viability, T/C (second compound 0.1 µM, first compound 0.03 µM) 30.8% | viability, T/C (second compound 0.1 µM, first compound 0.0949 µM) 21.1%
< 9.49 nM: IC50 [2] | IC50 [3] | IC50 [4] | IC50 [5] | IC50 [6]
29.4 nM: IC50 [1]

Cn1ncnc1[C@H]1c2n[nH]c(=O)c3cc(F)cc(c23)N[C@@H]1c1ccc(F)cc1
inactive: viability, T/C (compound 0.000316 µM) 110% and 102% | viability, T/C (compound 0.001 µM) 91.2% and 96.9% | viability, T/C (compound 0.00316 µM) 106% and 96.8% | viability, T/C (compound 0.01 µM) 103% and 105% | viability, T/C (compound 0.0316 µM) 107% and 114% | viability, T/C (compound 0.1 µM) 107% and 101%
> 100 nM: IC50 (curve of compound)

COC1C=CCC(C)C(C)S(=O)(=O)NC(=O)c2ccc3c(c2)N(CC2CCC21)CC1(CCCc2cc(Cl)ccc21)CO3 (stereo not given) + CNC(=O)c1ccc(Nc2nc(OC3CCCC3)c3c(-c4ccc5nc(C)oc5c4)c[nH]c3n2)c(OC)c1
inactive: viability, T/C (second compound 0.0316 µM, first compound 0.0316 µM) 72% | viability, T/C (second compound 0.0316 µM, first compound 0.1 µM) 92.5% | viability, T/C (second compound 0.0316 µM, first compound 0.316 µM) 66.1% | viability, T/C (second compound 0.0316 µM, first compound 1 µM) 104% | viability, T/C (second compound 0.0316 µM, first compound 3.16 µM) 86.2% | viability, T/C (second compound 0.0316 µM, first compound 10 µM) 29.1% | viability, T/C (second compound 0.1 µM, first compound 0.0316 µM) 46.2% | viability, T/C (second compound 0.1 µM, first compound 0.1 µM) 45.4% | viability, T/C (second compound 0.1 µM, first compound 0.316 µM) 37.3% | viability, T/C (second compound 0.1 µM, first compound 1 µM) 32.2% | viability, T/C (second compound 0.1 µM, first compound 3.16 µM) 30.3% | viability, T/C (second compound 0.1 µM, first compound 10 µM) 21.5% | viability, T/C (second compound 0.316 µM, first compound 0.0316 µM) 40.3% | viability, T/C (second compound 0.316 µM, first compound 0.1 µM) 33.6% | viability, T/C (second compound 0.316 µM, first compound 0.316 µM) 29.8% | viability, T/C (second compound 0.316 µM, first compound 1 µM) 24.8% | viability, T/C (second compound 0.316 µM, first compound 3.16 µM) 20.5% | viability, T/C (second compound 0.316 µM, first compound 10 µM) 19.1% | viability, T/C (second compound 1 µM, first compound 0.0316 µM) 31.9% | viability, T/C (second compound 1 µM, first compound 0.1 µM) 25.8% | viability, T/C (second compound 1 µM, first compound 0.316 µM) 20.6% | viability, T/C (second compound 1 µM, first compound 1 µM) 17.6% | viability, T/C (second compound 1 µM, first compound 3.16 µM) 13.8% | viability, T/C (second compound 1 µM, first compound 10 µM) 13.5% | viability, T/C (second compound 3.16 µM, first compound 0.0316 µM) 26.1% | viability, T/C (second compound 3.16 µM, first compound 0.1 µM) 20.3% | viability, T/C (second compound 3.16 µM, first compound 0.316 µM) 15.6% | viability, T/C (second compound 3.16 µM, first compound 1 µM) 12% | viability, T/C (second compound 10 µM, first compound 0.0316 µM) 22.6% | viability, T/C (second compound 10 µM, first compound 0.1 µM) 19% | viability, T/C (second compound 10 µM, first compound 0.316 µM) 12.3% | viability, T/C (second compound 10 µM, first compound 1 µM) 12.3%
active: viability, T/C (second compound 3.16 µM, first compound 3.16 µM) 9.4% | viability, T/C (second compound 3.16 µM, first compound 10 µM) 7.9% | viability, T/C (second compound 10 µM, first compound 3.16 µM) 9.91% | viability, T/C (second compound 10 µM, first compound 10 µM) 5.3%
6470 nM: IC50 [1]
< 31.6 nM: IC50 [2] | IC50 [3] | IC50 [4] | IC50 [5] | IC50 [6]

COC1C=CCC(C)C(C)S(=O)(=O)NC(=O)c2ccc3c(c2)N(CC2CCC21)CC1(CCCc2cc(Cl)ccc21)CO3 (stereo not given)
inactive: viability, T/C (compound 0.0316 µM) 112% and 102% | viability, T/C (compound 0.1 µM) 97.2% and 97.7% | viability, T/C (compound 0.316 µM) 102% and 97.5% | viability, T/C (compound 1 µM) 107% and 99.3% | viability, T/C (compound 3.16 µM) 109% and 99.7% | viability, T/C (compound 10 µM) 38.3% and 29.6%
8200 nM and 7140 nM: IC50 (curve of compound)

O=C(c1cc(Cc2n[nH]c(=O)c3ccccc23)ccc1F)N1CCN(C(=O)C2CC2)CC1
> 10000 nM: IC50 (curve of compound)
inactive: viability, T/C (compound 0.0316 µM) 105% and 91.5% | viability, T/C (compound 0.1 µM) 107% and 99% | viability, T/C (compound 0.316 µM) 109% and 99.4% | viability, T/C (compound 1 µM) 109% and 104% | viability, T/C (compound 3.16 µM) 108% and 106% | viability, T/C (compound 10 µM) 90.4% and 89.1%

CCN1CCN(Cc2ccc(Nc3ncc(F)c(-c4cc(F)c5nc(C)n(C(C)C)c5c4)n3)nc2)CC1
483 nM and 891 nM: IC50 (curve of compound)
inactive: viability, T/C (compound 0.00316 µM) 91.2% and 109% | viability, T/C (compound 0.01 µM) 86.9% and 101% | viability, T/C (compound 0.0316 µM) 86.5% and 84.8% | viability, T/C (compound 0.1 µM) 68.3% and 76.1% | viability, T/C (compound 0.316 µM) 52.7% and 61.5% | viability, T/C (compound 1 µM) 46.3% and 48.5%

Reference: PubChem BioAssay AID2060607 (Molecular Pharmacology Branch, DTP, NCI, 2025)
